Structures are written as SMILES.

For orientation: EC50 means the concentration that produces a half-maximal response.

The subject of assay [1] is TLR4-induced IL-23 production in human primary dendritic cells (DC). As to the kind of experiment: IL23-p19 ELISA, dendritic cells (DC), LPS. Type of assay: cell-based. The note with it: Dendritic cell; dendritic cells from human PBMC, IFNγ primed, LPS 1 μg/ml, 18 h; read-out: IL23-p19 ELISA, Dendritic, LPS, 10 pt EC50. The method, then:
Human PBMC cells (400 million) obtained from the vendor were transferred into a T-175 flask containing 15 ml RPMI media (10% FBS) and incubate for 2 hours at 37° C. After 2 hours, the media including floating cells was aspirated out carefully and 12 ml of fresh RPMI media (10% FBS) containing GMCSF (100 ng/ml) and IL4 (20 ng/ml) was added, and the flask was kept in a 37° C. incubator for 7 days.
After 3 days, fresh GMCSF (100 ng/ml) and IL4 (20 ng/ml) were added to the flask and the incubation continued. After 7 days, the fully differentiated cells were harvested by spinning down (1200 rpm/5 min) and aspirating the media. […]
155 μl of the supernatant was harvested from each well carefully (without the tip touching the bottom of the well) and to the remaining 50 μl/well of the cell culture plate was added 50 μl of Cell Titer Glo reagent. The mixture was incubated for 1-2 minutes on a shaker and the plate was read for luminescence intensity to determine the compound cytotoxicity. […]
After 45 minutes, the plates were washed with TBST 4× and 100 ul/well Super Signal ELISA Pico Chemiluminescent Substrate from Pierce (3.5 ml A+3.5 ml B+3.5 ml MQ water) was added. The plates were shaken for 1-2 minutes then read on a plate reader. […]
For orientation: An ELISA detects its analyte on a solid surface through an enzyme-linked reagent.

The target of a further assay is IRAK1 (Homo sapiens, UniProt P51617). Description: IRAK1 ADP-Glo kinase assay. The note with it: read-out: IRAK1 ADP-Glo Kinase, 8 pt EC50. Type of assay: biochemical. Background: ADP-Glo first removes unused ATP, then detects ADP through luciferase.
Chain of IRAK1 (P51617 whole entry): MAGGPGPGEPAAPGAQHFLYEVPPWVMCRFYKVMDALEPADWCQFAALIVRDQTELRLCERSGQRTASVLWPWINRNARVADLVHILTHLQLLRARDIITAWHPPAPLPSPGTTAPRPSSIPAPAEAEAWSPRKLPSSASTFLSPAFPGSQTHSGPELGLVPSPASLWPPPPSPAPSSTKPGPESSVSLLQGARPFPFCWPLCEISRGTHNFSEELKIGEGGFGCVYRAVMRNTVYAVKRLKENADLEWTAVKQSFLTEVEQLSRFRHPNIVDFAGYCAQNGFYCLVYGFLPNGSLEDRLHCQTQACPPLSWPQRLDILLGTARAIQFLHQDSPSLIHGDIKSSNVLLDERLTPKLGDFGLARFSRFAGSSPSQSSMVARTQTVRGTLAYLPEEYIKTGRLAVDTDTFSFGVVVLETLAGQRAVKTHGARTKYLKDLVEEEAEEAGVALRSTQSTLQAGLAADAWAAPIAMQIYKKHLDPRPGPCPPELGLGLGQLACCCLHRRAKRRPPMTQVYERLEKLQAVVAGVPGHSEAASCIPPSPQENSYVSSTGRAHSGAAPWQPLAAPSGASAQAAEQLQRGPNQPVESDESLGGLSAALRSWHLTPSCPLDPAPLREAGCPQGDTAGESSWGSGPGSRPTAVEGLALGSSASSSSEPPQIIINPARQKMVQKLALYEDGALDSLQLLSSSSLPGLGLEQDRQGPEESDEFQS
Assay [2] deals with TLR2-induced TNF-α production in human primary dendritic cells (DC). As to the kind of experiment: TLR2-induced TNF-α in human primary dendritic cells. The assay is classed as cell-based.
The test system of assay [3] is TLR4-dependent cytokine production in mouse macrophages. As to the kind of experiment: TLR4-dependent cytokine production in mouse macrophages. Type of assay: cell-based.
The subject of assay [4] is IL-10-induced production of the cytokine IL-6 in primary human endothelial cells. Description: IL-6 production in primary human endothelial cells. Type of assay: cell-based.

With `CCO[C@H]1CC[C@H](n2cc(NC(=O)c3csc(-c4cn[nH]c4)n3)c(-c3ncccn3)n2)CC1` [Compound I-1, N-(1-((1r,4r)-4-ethoxycyclohexyl)-3-(pyrimidin-2-yl)-1H-pyrazol-4-yl)-2-(1H-pyrazol-4-yl)thiazole-4-carboxamide], the concentration giving a half-maximal response (EC50) amounted to 180 nM in assay [1] and 8.1 nM on IRAK1. Besides, the “TLR2-induced TNF-α production in human primary dendritic cells (DC)” value in assay [2] was “blocks”. Also, the “TLR4-dependent cytokine production in mouse macrophages” value in assay [3] was “potent inhibitor”. Also, the “IL-10-induced production of the cytokine IL-6 in primary human endothelial cells” value in assay [4] is on record as “potently inhibits”.
